Data as given in the NIST ThermoML archive (doi:10.1016/j.jct.2015.12.017).
Numbers after ± are expanded uncertainties.

Assay: molar heat capacity at constant pressure
Details: 101.33 kPa

O=P([O-])([O-])[O-].[Co+2].[Cs+] [cesium cobalt(II) phosphate]
Details	molar heat capacity at constant pressure [J/K/mol]
304.98 K, Crystal 4, Vacuum adiabatic calorimetry	136.11 ± 0.5
305.47 K, Crystal 4, Vacuum adiabatic calorimetry	136.19 ± 0.5
306.97 K, Crystal 4, Vacuum adiabatic calorimetry	137.44 ± 0.5
307.51 K, Crystal 4, Vacuum adiabatic calorimetry	137.6 ± 0.5
308.95 K, Crystal 4, Vacuum adiabatic calorimetry	138.69 ± 0.5
309.32 K, Crystal 4, Vacuum adiabatic calorimetry	139.1 ± 0.5
310 K, Crystal 4, Vacuum adiabatic calorimetry	136.94 ± 0.5
310.91 K, Crystal 4, Vacuum adiabatic calorimetry	142.43 ± 0.5
311.46 K, Crystal 4, Vacuum adiabatic calorimetry	142.34 ± 0.5
312.84 K, Crystal 4, Vacuum adiabatic calorimetry	144.42 ± 0.5
313.4 K, Crystal 3, Vacuum adiabatic calorimetry	139.93 ± 0.5
313.4 K, Crystal 4, Vacuum adiabatic calorimetry	137.85 ± 0.5
313.44 K, Crystal 3, Vacuum adiabatic calorimetry	144.34 ± 0.5
314.77 K, Crystal 3, Vacuum adiabatic calorimetry	143.84 ± 0.5
315.42 K, Crystal 3, Vacuum adiabatic calorimetry	144.09 ± 0.5
316.69 K, Crystal 3, Vacuum adiabatic calorimetry	142.51 ± 0.5
317.39 K, Crystal 3, Vacuum adiabatic calorimetry	143.18 ± 0.5
318.6 K, Crystal 3, Vacuum adiabatic calorimetry	141.68 ± 0.5
319.35 K, Crystal 3, Vacuum adiabatic calorimetry	142.51 ± 0.5
320 K, Crystal 3, Vacuum adiabatic calorimetry	142.34 ± 0.5
320.51 K, Crystal 3, Vacuum adiabatic calorimetry	142.01 ± 0.5
321.31 K, Crystal 3, Vacuum adiabatic calorimetry	142.84 ± 0.5
322.4 K, Crystal 3, Vacuum adiabatic calorimetry	142.76 ± 0.5
323.26 K, Crystal 3, Vacuum adiabatic calorimetry	143.42 ± 0.5
324.27 K, Crystal 3, Vacuum adiabatic calorimetry	143.42 ± 0.5
325.2 K, Crystal 3, Vacuum adiabatic calorimetry	144.09 ± 0.5
326.14 K, Crystal 3, Vacuum adiabatic calorimetry	144.09 ± 0.5
327.14 K, Crystal 3, Vacuum adiabatic calorimetry	144.59 ± 0.5
327.98 K, Crystal 3, Vacuum adiabatic calorimetry	144.75 ± 0.5
329.07 K, Crystal 3, Vacuum adiabatic calorimetry	145.09 ± 0.5
330 K, Crystal 3, Vacuum adiabatic calorimetry	145.34 ± 0.5
330.98 K, Crystal 3, Vacuum adiabatic calorimetry	145.59 ± 0.5
332.87 K, Crystal 3, Vacuum adiabatic calorimetry	146 ± 0.5
334.4 K, Crystal 3, Small sample (50 mg) DSC	146.33 ± 4.2
334.77 K, Crystal 3, Vacuum adiabatic calorimetry	146.58 ± 0.5
336.65 K, Crystal 3, Vacuum adiabatic calorimetry	147.08 ± 0.5
336.9 K, Crystal 3, Small sample (50 mg) DSC	147.17 ± 4.2
338.52 K, Crystal 3, Vacuum adiabatic calorimetry	147.5 ± 0.5
339.4 K, Crystal 3, Small sample (50 mg) DSC	148 ± 4.2
340 K, Crystal 3, Vacuum adiabatic calorimetry	147.91 ± 0.5
340.21 K, Crystal 3, Vacuum adiabatic calorimetry	148 ± 0.5
341.82 K, Crystal 3, Vacuum adiabatic calorimetry	148.41 ± 0.5
341.9 K, Crystal 3, Small sample (50 mg) DSC	148 ± 4.2
343.88 K, Crystal 3, Vacuum adiabatic calorimetry	149.08 ± 0.5
344.4 K, Crystal 3, Small sample (50 mg) DSC	148.83 ± 4.2
345.68 K, Crystal 3, Vacuum adiabatic calorimetry	149.58 ± 0.5
346.9 K, Crystal 3, Small sample (50 mg) DSC	149.66 ± 4.2
347.49 K, Crystal 3, Vacuum adiabatic calorimetry	150.08 ± 0.5
349.26 K, Crystal 3, Vacuum adiabatic calorimetry	150.49 ± 0.5
349.4 K, Crystal 3, Small sample (50 mg) DSC	150.49 ± 4.2
350 K, Crystal 3, Small sample (50 mg) DSC	150.41 ± 4.3
351.9 K, Crystal 3, Small sample (50 mg) DSC	151.32 ± 4.2
354.4 K, Crystal 3, Small sample (50 mg) DSC	151.32 ± 4.2
356.9 K, Crystal 3, Small sample (50 mg) DSC	152.15 ± 4.2
359.4 K, Crystal 3, Small sample (50 mg) DSC	152.99 ± 4.2
360 K, Crystal 3, Small sample (50 mg) DSC	152.74 ± 4.4
361.9 K, Crystal 3, Small sample (50 mg) DSC	152.99 ± 4.2
364.4 K, Crystal 3, Small sample (50 mg) DSC	152.99 ± 4.2
366.9 K, Crystal 3, Small sample (50 mg) DSC	153.82 ± 4.2
369.4 K, Crystal 3, Small sample (50 mg) DSC	154.65 ± 4.2
370 K, Crystal 3, Small sample (50 mg) DSC	154.82 ± 4.4
371.9 K, Crystal 3, Small sample (50 mg) DSC	155.48 ± 4.2
374.4 K, Crystal 3, Small sample (50 mg) DSC	155.48 ± 4.2
376.9 K, Crystal 3, Small sample (50 mg) DSC	156.31 ± 4.2
379.4 K, Crystal 3, Small sample (50 mg) DSC	156.31 ± 4.2
380 K, Crystal 3, Small sample (50 mg) DSC	156.73 ± 4.5
381.9 K, Crystal 3, Small sample (50 mg) DSC	157.14 ± 4.2
384.4 K, Crystal 3, Small sample (50 mg) DSC	157.14 ± 4.2
386.9 K, Crystal 3, Small sample (50 mg) DSC	157.97 ± 4.2
389.4 K, Crystal 3, Small sample (50 mg) DSC	157.97 ± 4.2
390 K, Crystal 3, Small sample (50 mg) DSC	158.47 ± 4.6
391.9 K, Crystal 3, Small sample (50 mg) DSC	158.81 ± 5
394.4 K, Crystal 3, Small sample (50 mg) DSC	159.64 ± 5
396.9 K, Crystal 3, Small sample (50 mg) DSC	159.64 ± 5
399.4 K, Crystal 3, Small sample (50 mg) DSC	160.47 ± 5
400 K, Crystal 3, Small sample (50 mg) DSC	160.14 ± 4.6
401.9 K, Crystal 3, Small sample (50 mg) DSC	160.47 ± 5
404.4 K, Crystal 3, Small sample (50 mg) DSC	161.3 ± 5
406.9 K, Crystal 3, Small sample (50 mg) DSC	161.3 ± 5
409.4 K, Crystal 3, Small sample (50 mg) DSC	161.3 ± 5
410 K, Crystal 3, Small sample (50 mg) DSC	161.72 ± 4.7
411.9 K, Crystal 3, Small sample (50 mg) DSC	162.13 ± 5
414.4 K, Crystal 3, Small sample (50 mg) DSC	162.13 ± 5
416.9 K, Crystal 3, Small sample (50 mg) DSC	162.96 ± 5
419.4 K, Crystal 3, Small sample (50 mg) DSC	162.96 ± 5
420 K, Crystal 3, Small sample (50 mg) DSC	163.13 ± 4.7
421.9 K, Crystal 3, Small sample (50 mg) DSC	162.96 ± 5
424.4 K, Crystal 3, Small sample (50 mg) DSC	163.8 ± 5
426.9 K, Crystal 3, Small sample (50 mg) DSC	163.8 ± 5
429.4 K, Crystal 3, Small sample (50 mg) DSC	164.63 ± 5
430 K, Crystal 3, Small sample (50 mg) DSC	164.54 ± 4.7
431.9 K, Crystal 3, Small sample (50 mg) DSC	164.63 ± 5
434.4 K, Crystal 3, Small sample (50 mg) DSC	165.46 ± 5
436.9 K, Crystal 3, Small sample (50 mg) DSC	165.46 ± 5
439.4 K, Crystal 3, Small sample (50 mg) DSC	166.29 ± 5
440 K, Crystal 3, Small sample (50 mg) DSC	165.96 ± 4.7
441.9 K, Crystal 3, Small sample (50 mg) DSC	166.29 ± 5
444.4 K, Crystal 3, Small sample (50 mg) DSC	167.12 ± 5
446.9 K, Crystal 3, Small sample (50 mg) DSC	167.12 ± 5
449.4 K, Crystal 3, Small sample (50 mg) DSC	167.12 ± 5
450 K, Crystal 3, Small sample (50 mg) DSC	167.45 ± 4.8
